PMC7486443, “Generation of Phenothiazine with Potent Anti-TLK1 Activity for Prostate Cancer Therapy” (iScience, 2020)

How the values were obtained:
Experiment in all cases: biochemical
Set-up in all cases: DiscoverX KINOMEscan scanMAX competition binding panel, single concentration, percent of control; remaining binding: dose or concentration left out as unconfirmed
Settings in all cases: KINOMEscan binding, percent of control; read-out: Table S4_SCANMAX REPORT - related to Fig. 1 / Percent Control
[1] = biological target: PIK3CA(I800L) (Homo sapiens, UniProt P42336, I800L)
[2] = biological target: CAMK2G (Homo sapiens, UniProt Q13555)
[3] = biological target: T1, ABL1(F317I)-phosphorylated (Homo sapiens, UniProt P00519, F317I)
T1 construct: phosphorylated

[4] = biological target: EPHA7 (Homo sapiens, UniProt Q15375)
[5] = biological target: CDK5 (Homo sapiens, UniProt Q00535)
[6] = biological target: LRRK2(G2019S) (Homo sapiens, UniProt Q5S007, G2019S)
[7] = biological target: FLT3-autoinhibited (Homo sapiens, UniProt P36888)
[8] = biological target: KIT(D816H) (Homo sapiens, UniProt P10721, D816H)
[9] = biological target: DMPK (Homo sapiens, UniProt Q09013)
[10] = biological target: WEE1 (Homo sapiens, UniProt P30291)
[11] = biological target: LIMK1 (Homo sapiens, UniProt P53667)
[12] = biological target: EPHA4 (Homo sapiens, UniProt P54764)
[13] = biological target: EGFR(L747-S752del, P753S) (Homo sapiens, UniProt P00533, DEL747-752/P753S)
[14] = biological target: IRAK3 (Homo sapiens, UniProt Q9Y616)
[15] = biological target: T2, ICK (Homo sapiens, UniProt Q9UPZ9)
T2 construct: gene CILK1

[16] = biological target: CDK9 (Homo sapiens, UniProt P50750)
[17] = biological target: KIT(V559D,V654A) (Homo sapiens, UniProt P10721, V559D/V654A)
[18] = biological target: T3, RSK3(Kin.Dom.2-C-terminal) (Homo sapiens, UniProt Q15349)
T3 construct: gene RPS6KA2; Kin.Dom.2-C-terminal
T3 sequence (Q15349 whole entry): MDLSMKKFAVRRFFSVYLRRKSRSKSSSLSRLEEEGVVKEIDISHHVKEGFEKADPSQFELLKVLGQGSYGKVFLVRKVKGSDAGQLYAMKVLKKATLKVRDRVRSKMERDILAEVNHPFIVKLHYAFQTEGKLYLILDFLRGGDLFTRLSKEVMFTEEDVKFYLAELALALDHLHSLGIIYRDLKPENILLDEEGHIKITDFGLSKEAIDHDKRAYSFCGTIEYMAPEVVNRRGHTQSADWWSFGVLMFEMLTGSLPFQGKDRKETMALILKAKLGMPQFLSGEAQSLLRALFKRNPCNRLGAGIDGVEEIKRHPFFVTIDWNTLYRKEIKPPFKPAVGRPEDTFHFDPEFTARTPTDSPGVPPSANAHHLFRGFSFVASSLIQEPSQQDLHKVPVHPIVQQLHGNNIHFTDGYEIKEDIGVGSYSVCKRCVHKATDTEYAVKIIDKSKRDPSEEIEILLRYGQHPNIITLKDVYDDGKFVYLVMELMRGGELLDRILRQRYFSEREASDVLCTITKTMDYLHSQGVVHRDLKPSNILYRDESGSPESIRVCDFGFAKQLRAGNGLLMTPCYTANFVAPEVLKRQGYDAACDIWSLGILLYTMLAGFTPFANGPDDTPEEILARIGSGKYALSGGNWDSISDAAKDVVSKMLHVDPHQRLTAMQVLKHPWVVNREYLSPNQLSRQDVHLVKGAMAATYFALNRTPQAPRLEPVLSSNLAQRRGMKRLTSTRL

Sequence of LRRK2(G2019S) (Q5S007 whole entry G2019S): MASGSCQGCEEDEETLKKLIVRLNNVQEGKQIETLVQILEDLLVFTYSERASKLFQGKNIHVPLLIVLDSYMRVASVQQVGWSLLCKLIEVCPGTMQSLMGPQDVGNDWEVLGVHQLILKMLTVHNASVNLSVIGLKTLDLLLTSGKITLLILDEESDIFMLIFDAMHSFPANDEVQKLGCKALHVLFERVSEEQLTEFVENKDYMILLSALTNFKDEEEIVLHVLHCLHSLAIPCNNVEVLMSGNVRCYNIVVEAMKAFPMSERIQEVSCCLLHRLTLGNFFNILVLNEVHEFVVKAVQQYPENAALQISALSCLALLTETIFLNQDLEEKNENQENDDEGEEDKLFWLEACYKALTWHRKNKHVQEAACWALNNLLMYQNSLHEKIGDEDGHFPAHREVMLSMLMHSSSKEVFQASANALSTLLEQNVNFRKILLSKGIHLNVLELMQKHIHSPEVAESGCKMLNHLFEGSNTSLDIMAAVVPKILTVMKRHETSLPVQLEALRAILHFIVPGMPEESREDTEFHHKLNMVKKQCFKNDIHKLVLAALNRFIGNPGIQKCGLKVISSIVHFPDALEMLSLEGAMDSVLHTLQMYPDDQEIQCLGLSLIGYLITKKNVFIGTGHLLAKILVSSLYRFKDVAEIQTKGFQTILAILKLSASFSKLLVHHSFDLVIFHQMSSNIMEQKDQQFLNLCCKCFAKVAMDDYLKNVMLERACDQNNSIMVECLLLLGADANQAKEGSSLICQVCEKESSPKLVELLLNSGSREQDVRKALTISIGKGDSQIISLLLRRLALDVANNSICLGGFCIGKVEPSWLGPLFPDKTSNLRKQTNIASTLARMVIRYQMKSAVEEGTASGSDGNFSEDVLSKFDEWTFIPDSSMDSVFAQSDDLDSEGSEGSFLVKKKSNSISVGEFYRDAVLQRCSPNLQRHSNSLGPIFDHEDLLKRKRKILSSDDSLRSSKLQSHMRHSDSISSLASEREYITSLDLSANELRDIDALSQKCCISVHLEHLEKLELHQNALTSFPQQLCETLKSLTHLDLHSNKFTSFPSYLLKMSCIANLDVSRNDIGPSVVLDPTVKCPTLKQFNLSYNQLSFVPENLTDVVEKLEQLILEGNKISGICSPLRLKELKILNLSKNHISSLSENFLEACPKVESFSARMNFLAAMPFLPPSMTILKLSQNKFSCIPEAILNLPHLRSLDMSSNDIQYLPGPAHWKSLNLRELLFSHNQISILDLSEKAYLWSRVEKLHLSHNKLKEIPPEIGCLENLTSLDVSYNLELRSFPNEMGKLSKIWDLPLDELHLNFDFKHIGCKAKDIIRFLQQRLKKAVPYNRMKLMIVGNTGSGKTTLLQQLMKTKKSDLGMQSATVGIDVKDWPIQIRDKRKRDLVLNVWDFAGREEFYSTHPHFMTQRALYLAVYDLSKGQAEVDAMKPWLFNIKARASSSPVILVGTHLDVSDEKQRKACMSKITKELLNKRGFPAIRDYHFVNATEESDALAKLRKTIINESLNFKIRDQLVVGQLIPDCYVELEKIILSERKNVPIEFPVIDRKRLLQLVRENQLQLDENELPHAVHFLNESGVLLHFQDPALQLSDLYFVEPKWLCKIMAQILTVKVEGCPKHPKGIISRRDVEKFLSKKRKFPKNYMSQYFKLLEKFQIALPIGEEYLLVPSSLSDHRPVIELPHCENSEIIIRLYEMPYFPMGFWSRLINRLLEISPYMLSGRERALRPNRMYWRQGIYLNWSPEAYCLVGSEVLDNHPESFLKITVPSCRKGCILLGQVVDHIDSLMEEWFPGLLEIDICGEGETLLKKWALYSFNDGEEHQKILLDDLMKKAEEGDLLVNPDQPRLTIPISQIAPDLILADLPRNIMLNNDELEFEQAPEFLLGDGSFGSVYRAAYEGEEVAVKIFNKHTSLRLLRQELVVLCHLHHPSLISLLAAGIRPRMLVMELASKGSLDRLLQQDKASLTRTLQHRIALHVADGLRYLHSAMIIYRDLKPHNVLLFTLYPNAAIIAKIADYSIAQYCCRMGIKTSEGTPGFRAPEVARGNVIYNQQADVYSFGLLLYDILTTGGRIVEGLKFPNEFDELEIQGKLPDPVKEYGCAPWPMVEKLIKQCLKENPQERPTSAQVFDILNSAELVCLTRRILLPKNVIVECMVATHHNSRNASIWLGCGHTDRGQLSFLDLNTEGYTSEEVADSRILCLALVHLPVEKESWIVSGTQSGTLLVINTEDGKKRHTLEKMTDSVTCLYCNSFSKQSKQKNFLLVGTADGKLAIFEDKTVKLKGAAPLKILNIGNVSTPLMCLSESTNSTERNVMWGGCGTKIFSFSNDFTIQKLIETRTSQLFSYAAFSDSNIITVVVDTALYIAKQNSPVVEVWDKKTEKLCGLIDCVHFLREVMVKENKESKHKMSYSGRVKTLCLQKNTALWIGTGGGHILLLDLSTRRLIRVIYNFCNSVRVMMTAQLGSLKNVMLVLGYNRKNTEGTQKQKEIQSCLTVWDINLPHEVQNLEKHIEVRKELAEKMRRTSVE
Sequence of CDK5 (Q00535 whole entry): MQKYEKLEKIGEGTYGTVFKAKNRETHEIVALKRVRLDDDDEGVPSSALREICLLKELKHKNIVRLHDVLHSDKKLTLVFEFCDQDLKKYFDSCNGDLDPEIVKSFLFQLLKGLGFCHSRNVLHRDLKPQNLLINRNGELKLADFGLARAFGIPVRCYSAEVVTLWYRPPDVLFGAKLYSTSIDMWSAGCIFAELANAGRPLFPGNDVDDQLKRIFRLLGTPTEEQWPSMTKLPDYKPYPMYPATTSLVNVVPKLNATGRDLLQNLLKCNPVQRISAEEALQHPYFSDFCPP
Sequence of EPHA7 (Q15375 whole entry): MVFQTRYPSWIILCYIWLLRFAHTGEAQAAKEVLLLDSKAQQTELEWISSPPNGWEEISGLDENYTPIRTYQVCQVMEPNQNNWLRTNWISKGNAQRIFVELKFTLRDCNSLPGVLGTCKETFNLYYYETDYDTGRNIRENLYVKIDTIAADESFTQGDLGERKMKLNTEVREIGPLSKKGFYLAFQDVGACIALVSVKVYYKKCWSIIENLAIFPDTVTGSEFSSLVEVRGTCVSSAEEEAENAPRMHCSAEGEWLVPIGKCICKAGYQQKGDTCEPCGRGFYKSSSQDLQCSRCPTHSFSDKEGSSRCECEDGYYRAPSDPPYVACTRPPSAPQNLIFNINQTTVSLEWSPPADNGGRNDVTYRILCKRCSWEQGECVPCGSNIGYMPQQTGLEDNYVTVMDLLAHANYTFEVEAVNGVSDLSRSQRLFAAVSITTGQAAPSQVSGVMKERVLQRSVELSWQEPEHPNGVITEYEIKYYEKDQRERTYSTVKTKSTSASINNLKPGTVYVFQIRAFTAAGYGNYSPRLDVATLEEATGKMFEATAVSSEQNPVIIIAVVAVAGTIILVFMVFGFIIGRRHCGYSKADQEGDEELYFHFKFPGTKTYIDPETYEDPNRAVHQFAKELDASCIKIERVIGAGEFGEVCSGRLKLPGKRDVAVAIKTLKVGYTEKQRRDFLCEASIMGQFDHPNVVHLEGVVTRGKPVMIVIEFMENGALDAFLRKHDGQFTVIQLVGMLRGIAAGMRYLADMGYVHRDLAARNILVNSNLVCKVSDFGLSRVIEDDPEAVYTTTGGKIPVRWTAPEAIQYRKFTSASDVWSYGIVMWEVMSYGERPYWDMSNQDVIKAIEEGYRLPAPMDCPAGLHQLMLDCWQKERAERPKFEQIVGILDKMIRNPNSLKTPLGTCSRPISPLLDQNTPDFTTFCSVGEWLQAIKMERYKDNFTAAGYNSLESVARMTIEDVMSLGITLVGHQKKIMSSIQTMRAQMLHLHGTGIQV
Sequence of CAMK2G (Q13555 whole entry): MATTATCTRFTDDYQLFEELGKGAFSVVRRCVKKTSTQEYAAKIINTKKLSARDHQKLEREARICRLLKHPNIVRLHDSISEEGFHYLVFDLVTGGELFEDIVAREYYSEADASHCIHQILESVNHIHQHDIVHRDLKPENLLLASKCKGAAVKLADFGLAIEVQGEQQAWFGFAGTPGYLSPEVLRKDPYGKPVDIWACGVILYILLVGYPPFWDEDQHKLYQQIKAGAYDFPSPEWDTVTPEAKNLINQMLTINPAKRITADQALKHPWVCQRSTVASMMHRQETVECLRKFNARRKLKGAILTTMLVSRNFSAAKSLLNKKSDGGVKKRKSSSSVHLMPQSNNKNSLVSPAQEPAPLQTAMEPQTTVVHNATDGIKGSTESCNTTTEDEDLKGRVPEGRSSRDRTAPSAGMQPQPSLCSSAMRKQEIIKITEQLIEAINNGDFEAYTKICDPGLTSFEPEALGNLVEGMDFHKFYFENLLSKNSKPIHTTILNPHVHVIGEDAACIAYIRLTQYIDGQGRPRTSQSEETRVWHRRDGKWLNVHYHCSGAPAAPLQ

c1ccc2c(c1)Sc1ccccc1N2CCN1CCOCC1 [J54]
remaining binding [1]: 99%
remaining binding [2]: 100%
remaining binding [3]: 100%
remaining binding [4]: 100%
remaining binding [5]: 99%
remaining binding [6]: 38%
remaining binding [7]: 100%
remaining binding [8]: 62%
remaining binding [9]: 85%
remaining binding [10]: 78%
remaining binding [11]: 100%
remaining binding [12]: 100%
remaining binding [13]: 92%
remaining binding [14]: 90%
remaining binding [15]: 100%
remaining binding [16]: 100%
remaining binding [17]: 99%
remaining binding [18]: 97%
